The values that follow come from US7371779B2, “Synergistic compositions of N-acylhomoserine lactones and 4-quinolones” (The Secretary of State for Defense Science and Technology, priority 2001, dated 2008).

Read-outs that look alike come from different tables or passages of the source.

The test system of one experiment is murine splenocytes. Briefly: ConA mitogen-stimulated proliferation of murine splenocytes ([3H]-thymidine incorporation). Type of experiment: cell-based, mouse (BALB/c). Particulars: ConA 1 μg/ml, 100,000 spleen cells, Experiment I; read-out: IC50 in inhibition of ConA induced murine splenocyte proliferation. The procedure: (§1) Proliferation was assessed by the incorporation of [^3H]-thymidine into DNA. Eight-week-old female BALB/c mice were obtained from Harlan (Bicester, Oxon, UK) and given food and water ad libitum. Splenocyte suspensions were prepared by removing the spleens and placing them into RPMI 1640 medium. The spleens were forced through 70-μm-pore-size wire gauzes using the plunger from a 5-ml syringe to produce a single cell suspension. The cells were pelleted by centrifugation, and erythrocytes were lysed with 0.017 M Tris, 0.144 M ammonium chloride buffer, pH 7.2. Leucocytes were washed twice with RPMI 1640 medium with 2% (vol/vol) foetal calf serum (FCS) and resuspended in complete cell culture medium (CTCM) consisting of RPMI 1640 medium with 5% FCS, 2 mM L-glutamine, and 5×10^−5 M 2-mercaptoethanol. HSL compounds were tested at doubling down dilutions ranging from 1 mM to 0.1 μM in a final volume of 200 μl of CTCM, containing ConA (Sigma, Poole, UK) at 1 μg/ml and 100,000 spleen cells. Following incubation for 48 h at 37° C. in 5% CO2-air, 0.25 μCi [^3H]-thymidine (Amersham) in 10 μl volume made up in RPMI 1640 medium was added and the cells were incubated for a further 24 h. Cells were harvested onto fibreglass filters with a Packard filtermate harvester. After the addition of 25 μl of MicroScint-O (Packard) to each well the filters were counted with the Packard TopCount scintillation counter.
Mitogen (Concanavalin A) induced murine splenocyte proliferation was indicated by the incorporation of tritated thymidine into the DNA in the mouse spleen cells as shown by counts per minute using the scintillation counter. The inhibitory effect of an HSL compound being tested on cell proliferation was indicated by a reduction in counts per minute.
as §1, with “70 μm pore size” for “70-μm-pore-size”, “5 ml” for “5-ml”, “The title compound was” for “HSL compounds were”, “dilutions” for “dilutions ranging from 1 mM to 0.1 μM in a final volume of 200 μl of CTCM,”, “g/ml” for “μg/ml”, “COrair,” for “CO2-air,”
Mitogen (Concanavalin A) induced murine splenocyte proliferation was indicated by the incorporation of tritated thymidine into the DNA in the mouse spleen cells as shown by counts per minute using the scintillation counter. The inhibitory effect of the title compound being tested on cell proliferation was indicated by a reduction in counts per minute.

The test system of another experiment is human PBMC. Put plainly: ConA mitogen-stimulated proliferation of human PBMC ([3H]-thymidine incorporation). The format is cell-based. As to conditions: for IC50: Experiment II, read-out: IC50 in inhibition of ConA induced cell proliferation of PBMC. The procedure: Blood specimens were obtained with consent from healthy human volunteers. Human peripheral blood mononuclear cells (PBMC) were isolated from heparinised whole blood by buoyant density centrifugation over Histopaque 1077 (Sigma, Poole, UK) at 600 g for 20 minutes. PBMC harvested from the ‘buffy’ layers were washed twice with RPMI 1640 medium and resuspended in CTCM. […] Human PBMC were incubated for 48 h at 37° C. in 5% CO2-air, followed by pulsing with 0.25 μCi [^3H]-thymidine (see above). After a further incubation of 24 h cells were harvested onto fibreglass filters and then counted in the presence of MicroScint-O with the Packard TopCount.
Concanavalin induced cell proliferation of human peripheral blood mononuclear cells (PBMC) was tracked, as described in I above, by a measurement of counts per minute using the scintillation counter. The inhibitory effect of an HSL compound being tested on cell proliferation was indicated by a reduction in counts per minute. […] Columns B, C and D represent different sources of human PBMC samples used.
Plots of counts per minute (cpm) against the concentration of the quorum sensing molecules and the vehicle are shown in FIG. 11.

In a further experiment the test system is TNF-alpha. Briefly: TNF-alpha production from LPS-stimulated human PBMC (sandwich ELISA). As to conditions: for IC50: Experiment III, read-out: IC50 in inhibition of LPS induced production of TNF-α by human PBMC. The format is cell-based. As for the experimental part:
Bacterial lipopolysaccharide (LPS) stimulates the production of a variety of cytokines, including TNF-alpha, from human PBMC; these cytokines in turn influence the development of T cells, supporting a T helper 1 conducive milieu. Human PBMC prepared from whole blood by buoyant density centrifugation were resuspended in CTCM. […] Following incubation for 24 h at 37° C. in 5% CO2-air, the cell culture supernatants were collected and tested for TNF-alpha levels by ‘sandwich’ ELISA. Briefly, 96-well Nunc MaxiSorp (Life Technologies, Paisley, UK) plates were coated with 50 μl of a 2 μg/ml solution of mouse anti-human TNF-alpha monoclonal antibody (Pharmingen, UK) in 0.05 M carbonate/bicarbonate buffer, pH 9.6 overnight at 4° C. After washing the plates three times with PBS-Tween, which contained phosphate buffered saline (PBS) with 0.5% (vol/vol) Tween 20 (Sigma, Poole, UK), the plates were blocked with 1% (wt/vol) bovine serum albumin (BSA) (Sigma, Poole, UK) at room temperature for 2 h. Following three washes with PBS-Tween, 50 μl of cell culture supernatants were added and incubated overnight at 4° C.; standard human TNF-alpha (Pharmingen, UK) ranging from 2000 to 31.25 pg/ml were included for each plate. After four washes with PBS-Tween, 50 μl of a second antibody, biotinylated mouse anti-human TNF-alpha monoclonal antibody (Pharmingen, UK) was added at 0.5 μg/1 ml diluted in 1% BSA in PBS-Tween and incubated at room temperature for 1 h. Following four washes, the bound biotinylated antibody was detected with 50 μl of a 1:1,000 dilution of Streptavidin-peroxidase (Pharmingen, UK). At the end of an hour incubation at room temperature, the plates were thoroughly washed six times with PBS-Tween and the assay was developed by the addition of 100 μl of 0.1 mg/ml of tetramethyl benzidine subtrate (Sigma, Poole, UK) in 0.1 M sodium acetate buffer, pH 6 containing 0.03% H2O2. The enzyme reaction was stopped with 50 μl of 2.5 M H2SO4 after an incubation of 10 minutes at room temperature and the development was read at 450 nm with a spectrophotometric 96-well plate reader (Dynex).

Turning to `O=C(CCCCCCCCCBr)CC(=O)N[C@H]1CCOC1=O` [Example 7, N-(12-Bromo-3-oxododecanoyl)-L-homoserine lactone], the IC50 in the experiment on murine splenocytes amounted to 6 µM; in the experiment with human PBMC (human PBMC source B), 20 µM; in the experiment on human PBMC (human PBMC source D) it was 7 µM; with TNF-alpha, 63 µM.

With `CCCCCCCCCCCC(=O)CC(=O)N[C@H]1CCOC1=O` [Example 11, N-(3-Oxotetradecanoyl)-L-homoserine lactone], the IC50 with murine splenocytes was found to be 6 µM; in the experiment on human PBMC (human PBMC source B), 32 µM; in the experiment with human PBMC (human PBMC source C) it was 12 µM; in the experiment with human PBMC (human PBMC source D) it was 30 µM; in the experiment on TNF-alpha, 35 µM. Besides, the “inhibition of ConA induced proliferation of human PBMC (cpm), in words” value with human PBMC (ConA 1 μg/ml) is recorded as “inhibited proliferation of human PBMC”. Further, the “inhibition of LPS induced TNF-α production by human PBMC, in words” value with TNF-alpha (LPS-stimulated human PBMC) is listed as “inhibited the secretion”.
